Read-outs that look alike come from different tables or passages of the source.
Legend:
[1] = molecular target: T1, human recombinant dopamine D4.2 receptor subtype (Homo sapiens, UniProt P21917, DEL265-296); test: Receptor binding assay, [3H]spiperone competition, D4.2; conditions: for D2/D4 Ratio: ratio of D2 Ki to D4 Ki
T1 sequence (P21917 with tags, fused parts or gaps DEL265-296): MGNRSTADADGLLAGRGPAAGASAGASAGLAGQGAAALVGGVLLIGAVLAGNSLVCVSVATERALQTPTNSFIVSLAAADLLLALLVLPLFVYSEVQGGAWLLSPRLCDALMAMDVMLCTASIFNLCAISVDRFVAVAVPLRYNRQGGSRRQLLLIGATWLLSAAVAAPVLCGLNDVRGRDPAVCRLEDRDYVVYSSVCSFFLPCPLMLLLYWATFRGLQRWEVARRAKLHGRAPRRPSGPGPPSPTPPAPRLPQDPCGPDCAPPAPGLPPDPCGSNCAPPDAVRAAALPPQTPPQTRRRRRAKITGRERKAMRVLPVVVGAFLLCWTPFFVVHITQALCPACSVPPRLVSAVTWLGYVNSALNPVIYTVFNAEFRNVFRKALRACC
Procedure: (§1) The D2 receptor cDNA was subcloned into an expression vector, pRc/CMV. The plasmids were transfected by electroporation into CHO K1 cells. A single stable transfectant, resistant to the antibiotic G418, was isolated and selected for use in the binding studies.
(§2) Cells were grown until confluent, after which growth medium was removed and replaced with 0.02% ethylene diamine tetracetate (EDTA) in a phosphate-buffered saline solution (Sigma Chemical Co., St. Louis, Missouri) and scraped from the flasks. The cells were centrifuged at about 1000 × g for 10 minutes at […] and then resuspended in TEM buffer (25 mM Tris-HCl, pH 7.4, 5 mM EDTA, and 6 mM MgCl2) for D2 or the D4.2 buffer (50 mM Tris-HCl, pH 7.4, 5 mM EDTA, 1.5 mM CaCl2, 5 mM KCl, and 120 mM NaCl) and homogenized. The membranes were pelleted by centrifugation at 20,000 × g at […] for 20 minutes. Then the pellets were resuspended in appropriate buffer at 1 mL/flask and stored at -70°C until used in the receptor binding assay.
(§3) After 60 minutes incubation at 25°C, the incubations were terminated by rapid filtration through Whatmann GF/B glass fibre filters (soaked for 1 hour in 0.5% polyethylenimine) on a -cell harvester, with three washes of 1 mL ice-cold buffer. Individual filter disks containing the bound ligand were placed in counting vials with 4 mL of scintillation fluid (Ready Gel, Beckman Instrument Inc., Fullerton, California) and then counted in a Beckman LS-6800 liquid scintillation counter at an efficiency of 45%. Nonspecific binding was defined in presence of […] of haloperidol.
(§4) Saturation and competition binding data were analyzed using an iterative nonlinear least-square curve-fitting Ligand program. […] Experimental compounds were made up as stock solutions in dimethyl sulfoxide (DMSO). […] Each observation was carried out in triplicate. To allow these calculations, Ki values were measured for the interaction of various ligands with the receptor. […]

[2] = molecular target: human dopamine D2 (Long form) receptors (Homo sapiens, UniProt P14416); test: Receptor binding assay, [3H]spiperone competition, D2
Procedure: as §1, §2, §3, §4

[3] = CHO K1 cell membranes, 0.2 nM [3H]spiperone, 60 minutes at 25°C, apparent Ki from IC50 by Cheng and Prusoff
[4] = CHO K1 cell membranes, 0.2 nM [3H]spiperone, 60 minutes at 25°C, apparent Ki from IC50 by Cheng and Prusoff, read-out: D4 (Ki)

Chain of human dopamine D2 (Long form) receptors (P14416 whole entry): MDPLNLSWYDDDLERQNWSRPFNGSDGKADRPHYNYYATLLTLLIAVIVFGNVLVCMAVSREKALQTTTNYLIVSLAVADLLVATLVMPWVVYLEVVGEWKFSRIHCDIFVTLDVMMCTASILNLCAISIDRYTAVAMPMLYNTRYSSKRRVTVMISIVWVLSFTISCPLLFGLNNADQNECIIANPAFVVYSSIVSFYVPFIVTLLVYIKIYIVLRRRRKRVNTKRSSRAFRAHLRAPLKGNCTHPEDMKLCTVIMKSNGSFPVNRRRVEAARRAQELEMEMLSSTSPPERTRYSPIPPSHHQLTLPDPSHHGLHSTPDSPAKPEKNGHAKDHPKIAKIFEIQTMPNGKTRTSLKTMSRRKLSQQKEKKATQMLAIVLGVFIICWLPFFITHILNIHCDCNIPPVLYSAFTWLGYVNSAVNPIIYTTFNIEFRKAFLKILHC

NS(=O)(=O)c1ccc(N2CCN(Cc3ccc4c(c3)NC(=O)CO4)CC2)cc1 [Example 4, 4-[4-(3-oxo-3,4-dihydro-2H-benzo[1,4]-oxazin-6-ylmethyl)-piperazin-1-yl]-benzenesulfonamide]
Ki ([1]; read-out: D4 (Ki)): 23.6 nM

O=C1COc2ccc(CN3CCN(c4ccccc4)CC3)cc2N1 [Example 8, 6-[4-phenyl-piperazin-1-ylmethyl]-4H-benzo[1,4]oxazin-3-one]
Ki ([1]; read-out: D4 (Ki)): 18.3 nM

O=C1COc2cc(CN3CCN(c4ccccc4)CC3)ccc2N1 [Example 13, 7-(4-phenyl-piperazin-1-ylmethyl)-4H-benzo[1,4]oxazine-3-one]
Ki [2, 3]: 129 nM
Ki ([1]; read-out: D4 (Ki)): 6.09 nM

Cc1ccc(N2CCN(Cc3ccc4c(c3)OCC(=O)N4)CC2)cc1C [Example 14, 7-[4-(3,4-dimethyl-phenyl)-piperazin-1-ylmethyl]-4H-benzo[1,4]oxazine-3-one]
Ki [2, 3]: 346 nM

Cc1ccc(C2CCN(Cc3ccc4c(c3)NC(=O)CO4)CC2)cc1 [Example 16, 6-(4-p-tolyl-piperidin-1-ylmethyl)-4H-benxo[1,4]oxazin-3-one]
Ki [1, 4]: 2.84 nM

O=C1COc2ccc(CN3CCN(c4ccc(C(F)(F)F)cc4)CC3)cc2N1 [Example 31, 6-[4-(4-Trifluoromethyl-phenyl)-piperazin-l-ylmethyl] -4H-benzo[1,4]oxazin-3-one]
Ki [1, 4]: 173 nM

O=C1COc2ccc(CN3CCN(c4ccc(Cl)cc4)CC3)cc2N1 [Example 32, 6-[4-(4-Chloro-phenyl)-piperazin-1-ylmethyl]-4H-benzo [1,4]oxazin-3-one]
Ki ([1]; read-out: D4 (Ki)): 62.5 nM

COc1ccc(N2CCN(Cc3ccc4c(c3)OCC(=O)N4)CC2)cc1 [Example 34, 7-[4-(4-Methoxy-phenyl)-piperazin-1-ylmethyl]-4H-benzo[1,4]oxazin-3-one]
Ki [2, 3]: ≥ 5880 nM
D2/D4 Ratio [1]: 1176.5
Ki ([1]; read-out: D4 (Ki)): 5 nM

O=C1COc2cc(CN3CCN(c4ccc(Cl)cc4)CC3)ccc2N1 [Example 35, 7-[4-(4-Chloro-phenyl)-piperazin-1-ylmethyl]-4H-benzo[1,4]oxazin-3-one]
Ki [2]: 620 nM
Ki [1]: 4.68 nM
D2/D4 Ratio [1]: 132.5

Cc1ccc(C2CCN(Cc3ccc4c(c3)OCC(=O)N4)CC2)cc1C [Example 36, 7-[4-(3,4-Dimethyl-phenyl)-piperidin-1-ylmethyl]-4H-benzo[1,4]oxazin-3-one]
Ki [2, 3]: 610 nM
Ki ([1]; read-out: D4 (Ki)): 2.61 nM

COc1ccc(C2CCN(Cc3ccc4c(c3)NC(=O)CO4)CC2)cc1 [Example 37, 6-[4-(4-Methoxy-phenyl) -piperidin-1-ylmethyl]-4H-benzo[1,4]oxazin-3-one]
Ki [2, 3]: 698 nM

COc1ccc(C2CCN(Cc3ccc4c(c3)OCC(=O)N4)CC2)cc1 [Example 38, 7-[4-(4-Methoxy-phenyl)-piperidin-1-ylmethyl]-4H-benzo[1,4]oxazin-3-one]
Ki [2, 3]: 1130 nM
D2/D4 Ratio [1]: 168.1
Ki ([1]; read-out: D4 (Ki)): 6.7 nM

Cc1ccc(C2CCN(Cc3ccc4c(c3)OCC(=O)N4)CC2)cc1 [Example 41, 7-(4-p-Tolyl-piperidin-1-ylmethyl)-4H-benzo[1,4]oxazin-3-one]
Ki [2, 3]: 287 nM
D2/D4 Ratio [1]: 110.5
Ki ([1]; read-out: D4 (Ki)): 2.6 nM
